The results in this text go back to paper PMC2719696, “Kinetics and Cellular Site of Glycolipid Loading Control the Outcome of Natural Killer T Cell Activation” (Immunity, 2009).

One test deals with murine iNKT cell TCRs. The experiment in a line: Equilibrium binding of glycolipid-loaded mCD1d tetramers to murine iNKT cells. Details: species or system mouse. The conditions noted are these: tetramer staining of murine iNKT cells. On the procedure: The interactions of iNKT cell TCRs with CD1d molecules loaded with αGalCer analogs were analyzed with fluorescent murine and human CD1d tetramers. […] Equilibrium binding studies for measuring TCR avidities were carried out by incubation of human or murine iNKT cells with varying concentrations of αGalCer-analog-loaded tetramers and determining relative levels of cell-associated fluorescence ([Stanic et al., 2003; Yu et al., 2005]).
Figure 2 Characterization of iNKT Cell TCR Interactions with αGalCer Analogs (A) Flow cytometry analysis of human and murine iNKT cells with αGalCer analog-CD1d tetramers. In the top row, murine iNKT cells from C57BL/6 splenocytes were costained with αGalCer analog-loaded or unloaded mCD1d tetramers conjugated with PE (x axis) and αGalCer-C26:0-loaded-mCD1d tetramers conjugated with APC (y axis). In the bottom row, human PBMCs were similarly costained with human glycolipid-loaded CD1d tetramers. (B) Binding avidity of glycolipid-mCD1d complexes to murine iNKT cell TCRs. Histograms at left show tetramer staining of NK1.1^+ CD3^+ T cells in C57BL/6 splenocytes with glycolipid-loaded tetramers at 20 nM. […]
Recombinant CD1d proteins were produced and assembled into tetramers for staining as previously described ([Forestier et al., 2007]). […] All samples were analyzed with the FACSCalibur flow cytometer (BD Biosciences).

For another test, the target named is T1, mCD1d (Mus musculus, UniProt P11609).
T1 construct: host or cells: JAWS II (C57BL/6.Trp53-/- derived dendritic cell line)
T1 sequence (P11609 22-336): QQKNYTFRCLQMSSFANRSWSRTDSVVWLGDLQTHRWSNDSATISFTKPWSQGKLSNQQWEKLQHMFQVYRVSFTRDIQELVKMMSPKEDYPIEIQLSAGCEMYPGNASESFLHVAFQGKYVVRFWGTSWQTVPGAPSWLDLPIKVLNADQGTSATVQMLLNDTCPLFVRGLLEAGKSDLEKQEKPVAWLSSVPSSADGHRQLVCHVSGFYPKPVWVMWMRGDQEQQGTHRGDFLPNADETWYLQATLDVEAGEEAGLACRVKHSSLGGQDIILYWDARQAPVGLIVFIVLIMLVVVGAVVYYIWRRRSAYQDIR
T1 sequence (P01887 21-119 partner): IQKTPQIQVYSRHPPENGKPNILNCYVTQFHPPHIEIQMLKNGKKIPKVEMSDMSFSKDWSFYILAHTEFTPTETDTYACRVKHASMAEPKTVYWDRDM
As to the kind of experiment: mAb L363 staining of αGalCer-mCD1d complexes on cultured mouse splenocytes. Format: cell-based. The conditions noted are these: 100 nM glycolipid, 1 hr or 19 hr. The protocol:
We studied this possibility directly by using a monoclonal antibody (L363) that specifically recognizes complexes of αGalCer bound to mCD1d ([Yu et al., 2007]). Mouse splenocytes were cultured with either αGalCer-C26:0 or representative Th2 cell-type cytokine-biasing analogs, and L363 staining was assessed on various cell types (Figure 3A). […] This was investigated further with more detailed kinetic studies in which immortalized mouse DC line JAWS II was cultured with each glycolipid and assessed for L363 surface staining at 0.5, 4, and 18 hr (Figure 3B). […]
Figure 3 Direct Analysis of Presentation of αGalCer Analogs with Complex-Specific mAb Staining (A) Mouse splenocytes cultured with either vehicle only (0.02% DMSO) or with the indicated αGalCer analogs (100 nM) were harvested after 1 hr or 19 hr of incubation and stained with mAb L363 or anti-CD1d mAb 1B1 and with mAbs specific for CD11c, CD19, and F4/80 (Figure S4). […] (B) JAWS II cells were incubated with glycolipids (250 nM) for various times ranging from 0.5–18 hr as indicated, stained with mAb L363, and analyzed by flow cytometry. […]
Recombinant CD1d proteins were produced and assembled into tetramers for staining as previously described ([Forestier et al., 2007]). […] All samples were analyzed with the FACSCalibur flow cytometer (BD Biosciences). […]

Consider `CCCCCCCCCCCCCCCCCCCCCCCC(=O)NC(COC1OC(CO)C(O)C(O)C1O)C(O)C(O)CCCCC` (centres unmarked) [OCH], for which, in the test with murine iNKT cell TCRs, the “TCR avidity of glycolipid-mCD1d complexes” value was “weak binding”. For the molecule `CCCCCCCCCCCCCCC(O)C(O)C(COC1OC(CO)C(O)C(O)C1O)NC(=O)CCCCCCCCC` (centres unmarked) [αGalCer-C10:0], the “L363 staining of splenocyte populations” value on mCD1d is listed as “extremely early appearance of L363 staining”.
